# Tested on: individuals diagnosed with schizophrenia
# Assay: Change in PANSS-GP subscale by SNP genotype, patients on iloperidone 24 mg/day b.i.d. for 28 days (MMRM)
# Type: in vivo, human
# Source text: Earlier studies investigated an association between a polymorphism in the CNTF gene and iloperidone efficacy as well as associations between CYP2D6 and KCNQ1 genotypes and changes in QT interval following the administration of iloperidone. The present study involved the genotyping of DNA samples collected from 426 individuals diagnosed with schizophrenia in an attempt to identify additional SNPs associated with iloperidone efficacy. Each sample was genotyped at more than 500,000 SNP loci using the GeneChip® Human Mapping 500K Array Set (Affymetrix, Santa Clara, Calif.) and using assays developed in-house. Approximately half of the participants in the study were administered 24 mg/day of iloperidone, b.i.d., for 28 days. About 25% of the patients were administered ziprasidone. The remaining participants were administered a placebo. Three analyses of the PANSS-T were conducted. 1) A two-step approach where samples were randomly split into 2 groups of iloperidone-treated patients used to discover SNPs associated with changed in PANSS-T (Discovery phase) and a second group to confirm the 100 most significant SNPs (Confirmatory phase). 2) A one-step approach using the Last Observation Carried Forward (LOCF) PANSS-T data of all iloperidone-treated patients. For each SNP, the most parsimonious genetic model (e.g., homozygous for one allele v. all other genotypes [i.e., AA v. AB and BB], heterozygous v. homozygous [i.e., AB v. AA and BB]) was established with respect to iloperidone efficacy using a one-way analysis of variance (ANOVA). 3) A Mixed-effects Model Repeated Measures (MMRM) analysis was subsequently conducted using the best genetic model of each SNP in the MMRM model. MMRM analyses were also conducted with the PANSS subscales PANSS-P, PANSS-N, and PANSS-GP. The SNPs with a statistically significant association in all 3 analyses of PANSS-T, as well as the best of each analysis were considered significant findings and are listed below in Table 1. Results for each of these SNPs with the PANSS-T scales and with the three subscales PANSS-P, PANSS-N, and PANSS-GP are shown in Tables 2, 3, 4, and 5, respectively. […] In the present case of iloperidone efficacy, it is likely that different markers are more specifically associated with one or a few specific clinical symptoms, which is reflected in the improvement measured in separate subscales.
compound,measurement,setting,value
"COc1cc(C(C)=O)ccc1OCCCN1CCC(c2noc3cc(F)ccc23)CC1 [iloperidone, 1-[4-[3-[4-(6-fluoro-1,2-benzisoxazol-3-yl)-1-piperidinyl]propoxy]-3-methoxyphenyl]ethanone]",mean of change in PANSS-GP,SNP_A-1819750 (CREG1) genotype A_A,−8.04
same,mean of change in PANSS-GP,SNP_A-1819750 (CREG1) genotype A_B* (lowest response),−4.58
same,mean of change in PANSS-GP,SNP_A-1819750 (CREG1) genotype B_B,−6.81
same,mean of change in PANSS-GP,SNP_A-1819750 (CREG1) genotype nonAB** (highest response),−7.21
same,mean of change in PANSS-GP,SNP_A-1860353 (RAP1B) genotype A_A** (highest response),−17.20
same,mean of change in PANSS-GP,SNP_A-1860353 (RAP1B) genotype A_B,−5.17
same,mean of change in PANSS-GP,SNP_A-1860353 (RAP1B) genotype B_B,−4.96
same,mean of change in PANSS-GP,SNP_A-1860353 (RAP1B) genotype nonAA* (lowest response),−5.00
same,mean of change in PANSS-GP,SNP_A-1934663 genotype A_A,−9.38
same,mean of change in PANSS-GP,SNP_A-1934663 genotype A_B,−8.80
same,mean of change in PANSS-GP,SNP_A-1934663 genotype B_B* (lowest response),−3.07
same,mean of change in PANSS-GP,SNP_A-1934663 genotype nonBB** (highest response),−8.92
same,mean of change in PANSS-GP,SNP_A-1973093 (KIAA0040) genotype A_A,−6.40
same,mean of change in PANSS-GP,SNP_A-1973093 (KIAA0040) genotype A_B* (lowest response),−1.92
same,mean of change in PANSS-GP,SNP_A-1973093 (KIAA0040) genotype B_B,−7.77
same,mean of change in PANSS-GP,SNP_A-1973093 (KIAA0040) genotype nonAB** (highest response),−7.51
same,mean of change in PANSS-GP,SNP_A-1975928 (SLC2A9) genotype A_A,−5.82
same,mean of change in PANSS-GP,SNP_A-1975928 (SLC2A9) genotype A_B,−5.39
same,mean of change in PANSS-GP,SNP_A-1975928 (SLC2A9) genotype B_B* (lowest response),9.62
same,mean of change in PANSS-GP,SNP_A-1975928 (SLC2A9) genotype nonBB** (highest response),−5.72
same,mean of change in PANSS-GP,SNP_A-1987915 (GPR126) genotype A_A,−4.63
same,mean of change in PANSS-GP,SNP_A-1987915 (GPR126) genotype A_B,−4.28
same,mean of change in PANSS-GP,SNP_A-1987915 (GPR126) genotype B_B** (highest response),−7.14
same,mean of change in PANSS-GP,SNP_A-1987915 (GPR126) genotype nonBB* (lowest response),−4.36
same,mean of change in PANSS-GP,SNP_A-2007721 (LOC58486) genotype A_A,−2.52
same,mean of change in PANSS-GP,SNP_A-2007721 (LOC58486) genotype A_B** (highest response),−10.51
same,mean of change in PANSS-GP,SNP_A-2007721 (LOC58486) genotype B_B,−3.91
same,mean of change in PANSS-GP,SNP_A-2007721 (LOC58486) genotype nonAB* (lowest response),−3.90
same,mean of change in PANSS-GP,SNP_A-2044214 (HNT) genotype A_A,−6.83
same,mean of change in PANSS-GP,SNP_A-2044214 (HNT) genotype A_B* (lowest response),−3.34
same,mean of change in PANSS-GP,SNP_A-2044214 (HNT) genotype B_B,−5.68
same,mean of change in PANSS-GP,SNP_A-2044214 (HNT) genotype nonAB** (highest response),−6.43
same,mean of change in PANSS-GP,SNP_A-2048427 (NPAS3) genotype A_A,−9.50
same,mean of change in PANSS-GP,SNP_A-2048427 (NPAS3) genotype A_B,−9.79
same,mean of change in PANSS-GP,SNP_A-2048427 (NPAS3) genotype B_B* (lowest response),−3.44
same,mean of change in PANSS-GP,SNP_A-2048427 (NPAS3) genotype nonBB** (highest response),−9.75
same,mean of change in PANSS-GP,SNP_A-2070454 (NKX2-5) genotype A_A,−3.91
same,mean of change in PANSS-GP,SNP_A-2070454 (NKX2-5) genotype A_B,−4.34
same,mean of change in PANSS-GP,SNP_A-2070454 (NKX2-5) genotype B_B** (highest response),−8.12
same,mean of change in PANSS-GP,SNP_A-2070454 (NKX2-5) genotype nonBB* (lowest response),−4.20
same,mean of change in PANSS-GP,SNP_A-2076797 (NUDT9P1) genotype A_A,−2.80
same,mean of change in PANSS-GP,SNP_A-2076797 (NUDT9P1) genotype A_B** (highest response),−8.23
same,mean of change in PANSS-GP,SNP_A-2076797 (NUDT9P1) genotype B_B,−2.42
same,mean of change in PANSS-GP,SNP_A-2076797 (NUDT9P1) genotype nonAB* (lowest response),−2.62
same,mean of change in PANSS-GP,SNP_A-2103099 (HTR1A) genotype A_A,−7.79
same,mean of change in PANSS-GP,SNP_A-2103099 (HTR1A) genotype A_B* (lowest response),−3.42
same,mean of change in PANSS-GP,SNP_A-2103099 (HTR1A) genotype B_B,−6.80
same,mean of change in PANSS-GP,SNP_A-2103099 (HTR1A) genotype nonAB** (highest response),−7.16
same,mean of change in PANSS-GP,SNP_A-2120958 genotype A_A,−5.90
same,mean of change in PANSS-GP,SNP_A-2120958 genotype A_B,−6.13
same,mean of change in PANSS-GP,SNP_A-2120958 genotype B_B* (lowest response),1.80
same,mean of change in PANSS-GP,SNP_A-2120958 genotype nonBB** (highest response),−5.99
same,mean of change in PANSS-GP,SNP_A-2170121 (C6) genotype A_A,−3.40
same,mean of change in PANSS-GP,SNP_A-2170121 (C6) genotype A_B** (highest response),−10.21
same,mean of change in PANSS-GP,SNP_A-2170121 (C6) genotype B_B,−5.25
same,mean of change in PANSS-GP,SNP_A-2170121 (C6) genotype nonAB* (lowest response),−3.57
same,mean of change in PANSS-GP,SNP_A-2274533 (LZTS1) genotype A_A** (highest response),−7.04
same,mean of change in PANSS-GP,SNP_A-2274533 (LZTS1) genotype A_B,−2.16
same,mean of change in PANSS-GP,SNP_A-2274533 (LZTS1) genotype B_B,−2.33
same,mean of change in PANSS-GP,SNP_A-2274533 (LZTS1) genotype nonAA* (lowest response),−2.20
same,mean of change in PANSS-GP,SNP_A-2283283 (XKR4) genotype A_A* (lowest response),−0.58
same,mean of change in PANSS-GP,SNP_A-2283283 (XKR4) genotype A_B,−6.49
same,mean of change in PANSS-GP,SNP_A-2283283 (XKR4) genotype B_B,−6.90
same,mean of change in PANSS-GP,SNP_A-2283283 (XKR4) genotype nonAA** (highest response),−6.66
same,mean of change in PANSS-GP,SNP_A-2284243 (GRIA4) genotype A_A,−6.57
same,mean of change in PANSS-GP,SNP_A-2284243 (GRIA4) genotype A_B,−6.77
same,mean of change in PANSS-GP,SNP_A-2284243 (GRIA4) genotype B_B* (lowest response),−0.77
same,mean of change in PANSS-GP,SNP_A-2284243 (GRIA4) genotype nonBB** (highest response),−6.69
same,mean of change in PANSS-GP,SNP_A-4204396 (CDH13) genotype A_A,−5.87
same,mean of change in PANSS-GP,SNP_A-4204396 (CDH13) genotype A_B,−5.99
same,mean of change in PANSS-GP,SNP_A-4204396 (CDH13) genotype B_B* (lowest response),1.39
same,mean of change in PANSS-GP,SNP_A-4204396 (CDH13) genotype nonBB** (highest response),−5.91
same,mean of change in PANSS-GP,SNP_A-4212785 (PPP1R3B) genotype A_A* (lowest response),15.61
same,mean of change in PANSS-GP,SNP_A-4212785 (PPP1R3B) genotype A_B,−5.99
same,mean of change in PANSS-GP,SNP_A-4212785 (PPP1R3B) genotype B_B,−5.84
same,mean of change in PANSS-GP,SNP_A-4212785 (PPP1R3B) genotype nonAA** (highest response),−5.89
same,mean of change in PANSS-GP,SNP_A-4230979 (ASB3) genotype A_A,−1.74
same,mean of change in PANSS-GP,SNP_A-4230979 (ASB3) genotype A_B,−3.42
same,mean of change in PANSS-GP,SNP_A-4230979 (ASB3) genotype B_B** (highest response),−8.85
same,mean of change in PANSS-GP,SNP_A-4230979 (ASB3) genotype nonBB* (lowest response),−3.07
same,mean of change in PANSS-GP,SNP_A-4256833 (MLCK) genotype A_A,−7.14
same,mean of change in PANSS-GP,SNP_A-4256833 (MLCK) genotype A_B* (lowest response),−2.62
same,mean of change in PANSS-GP,SNP_A-4256833 (MLCK) genotype B_B,−6.45
same,mean of change in PANSS-GP,SNP_A-4256833 (MLCK) genotype nonAB** (highest response),−6.49
same,mean of change in PANSS-GP,SNP_A-4258279 (RRM1) genotype A_A,−4.64
same,mean of change in PANSS-GP,SNP_A-4258279 (RRM1) genotype A_B* (lowest response),−0.66
same,mean of change in PANSS-GP,SNP_A-4258279 (RRM1) genotype B_B,−6.29
same,mean of change in PANSS-GP,SNP_A-4258279 (RRM1) genotype nonAB** (highest response),−6.27

# Source: patent US9080214B2, “Genetic markers for efficacy of iloperidone in the treatment of psychotic symptoms” (Vanda Pharmaceuticals, Inc., priority 2007, dated 2015)
